# Patent US20110045021A1, “SUGAR IMMUNOGENS” (United Therapeutics Corporation, priority 2007, published 2011)
# Experiment: Binding of human sera to a glycan microarray, measured by fluorescent anti-human antibodies
# Conditions: human sera (n=10), FIG. 1
# Excerpt: FIG. 1 provides an analysis of binding of human sera (n=10) to a glycan microarray measured by fluorescent anti-human antibodies.
# To identify carbohydrates that are naturally or inherently antigenic to the human immune system, one can screen human serum antibodies against immobilized glycans (see FIG. 1). This may reveal carbohydrates, and/or carbohydrate arrangements which are recognised as “non-self”. […] By incorporating rhamnose, or a similar antigenic mimics into the natural oligomannose structure of gp120, the inherent tolerance to the (mannose) sugars of HIV may be overcome.
row,Compound,antigenicity (human serum antibody reactivity against immobilized glycans)
1,OC[C@H]1O[C@H](O)[C@@H](O)[C@@H](O)[C@@H]1O [alpha-D-Mannose],is not
2,"C[C@H]1O[C@H](O)[C@@H](O)[C@@H](O)[C@@H]1O [alpha-D-rhamnose, 6-deoxy-alpha-D-mannose]",antigenic sugar
3,Man(α1-2)Man(α1-2)Man(α1-3)Man [D1],naturally antigenic
4,[Man(α1-2)Man(α1-6)][Man(α1-2)Man(α1-3)]Man [D2D3],naturally antigenic
